Measured values from the CheMixHub viscosity set.
± gives the uncertainty stated by the source.

Test: xn = mol fraction of the nth substance listed

CCCC(=O)O + O
viscosity (293.15 K, 101 kPa, x1 = 0.015): 1.31 ± 0.01 mPa·s
viscosity (293.15 K, 101 kPa, x1 = 0.034): 1.64 ± 0.02 mPa·s
viscosity (293.15 K, 101 kPa, x1 = 0.078): 2.41 ± 0.02 mPa·s
viscosity (293.15 K, 101 kPa, x1 = 0.165): 3.24 ± 0.04 mPa·s
viscosity (293.15 K, 101 kPa, x1 = 0.316): 3.71 ± 0.05 mPa·s
viscosity (293.15 K, 101 kPa, x1 = 0.497): 3.6 ± 0.06 mPa·s
viscosity (293.15 K, 101 kPa, x1 = 0.664): 3.25 ± 0.06 mPa·s
viscosity (293.15 K, 101.33 kPa, x1 = 0.0222): 1.332 ± 0.013 mPa·s
viscosity (293.15 K, 101.33 kPa, x1 = 0.0806): 2.265 ± 0.023 mPa·s
viscosity (293.15 K, 101.33 kPa, x1 = 0.17): 3.095 ± 0.031 mPa·s
viscosity (298.15 K, 101 kPa, x1 = 0.006288): 0.973 ± 0.026 mPa·s
viscosity (298.15 K, 101 kPa, x1 = 0.01294): 1.065 ± 0.029 mPa·s
viscosity (298.15 K, 101 kPa, x1 = 0.02): 1.152 ± 0.031 mPa·s
viscosity (298.15 K, 101 kPa, x1 = 0.02743): 1.248 ± 0.034 mPa·s
viscosity (298.15 K, 101 kPa, x1 = 0.03475): 1.344 ± 0.036 mPa·s
viscosity (298.15 K, 101 kPa, x1 = 0.04154): 1.44 ± 0.039 mPa·s
viscosity (298.15 K, 101 kPa, x1 = 0.04898): 1.55 ± 0.042 mPa·s
viscosity (298.15 K, 101 kPa, x1 = 0.05981): 1.695 ± 0.046 mPa·s
viscosity (298.15 K, 101 kPa, x1 = 0.07342): 1.881 ± 0.051 mPa·s
viscosity (298.15 K, 101 kPa, x1 = 0.08697): 2.038 ± 0.055 mPa·s
viscosity (298.15 K, 101 kPa, x1 = 0.1045): 2.222 ± 0.06 mPa·s
viscosity (298.15 K, 101 kPa, x1 = 0.1191): 2.365 ± 0.064 mPa·s
viscosity (298.15 K, 101 kPa, x1 = 0.133): 2.463 ± 0.066 mPa·s
viscosity (298.15 K, 101 kPa, x1 = 0.144): 2.538 ± 0.068 mPa·s
viscosity (298.15 K, 101 kPa, x1 = 0.17): 2.699 ± 0.073 mPa·s
viscosity (298.15 K, 101 kPa, x1 = 0.2): 2.823 ± 0.076 mPa·s
viscosity (298.15 K, 101 kPa, x1 = 0.237): 2.941 ± 0.079 mPa·s
viscosity (298.15 K, 101 kPa, x1 = 0.277): 3.039 ± 0.081 mPa·s
viscosity (298.15 K, 101 kPa, x1 = 0.321): 3.121 ± 0.084 mPa·s
viscosity (298.15 K, 101 kPa, x1 = 0.36): 3.129 ± 0.084 mPa·s
viscosity (298.15 K, 101 kPa, x1 = 0.408): 3.136 ± 0.084 mPa·s
viscosity (298.15 K, 101 kPa, x1 = 0.472): 3.095 ± 0.083 mPa·s
viscosity (298.15 K, 101 kPa, x1 = 0.529): 3.032 ± 0.081 mPa·s
viscosity (298.15 K, 101 kPa, x1 = 0.618): 2.861 ± 0.076 mPa·s
viscosity (298.15 K, 101 kPa, x1 = 0.669): 2.702 ± 0.072 mPa·s
viscosity (298.15 K, 101 kPa, x1 = 0.816): 2.249 ± 0.06 mPa·s
viscosity (308.15 K, 101 kPa, x1 = 0.006288): 0.777 ± 0.021 mPa·s
viscosity (308.15 K, 101 kPa, x1 = 0.01294): 0.844 ± 0.023 mPa·s
viscosity (308.15 K, 101 kPa, x1 = 0.02): 0.911 ± 0.024 mPa·s
viscosity (308.15 K, 101 kPa, x1 = 0.02743): 0.979 ± 0.026 mPa·s
viscosity (308.15 K, 101 kPa, x1 = 0.03475): 1.048 ± 0.028 mPa·s
viscosity (308.15 K, 101 kPa, x1 = 0.04154): 1.12 ± 0.03 mPa·s
viscosity (308.15 K, 101 kPa, x1 = 0.04898): 1.201 ± 0.032 mPa·s
viscosity (308.15 K, 101 kPa, x1 = 0.05981): 1.308 ± 0.035 mPa·s
viscosity (308.15 K, 101 kPa, x1 = 0.07342): 1.445 ± 0.039 mPa·s
viscosity (308.15 K, 101 kPa, x1 = 0.08697): 1.563 ± 0.042 mPa·s
viscosity (308.15 K, 101 kPa, x1 = 0.1045): 1.695 ± 0.046 mPa·s
viscosity (308.15 K, 101 kPa, x1 = 0.1191): 1.769 ± 0.048 mPa·s
viscosity (308.15 K, 101 kPa, x1 = 0.133): 1.873 ± 0.05 mPa·s
viscosity (308.15 K, 101 kPa, x1 = 0.144): 1.932 ± 0.052 mPa·s
viscosity (308.15 K, 101 kPa, x1 = 0.17): 2.049 ± 0.055 mPa·s
viscosity (308.15 K, 101 kPa, x1 = 0.2): 2.15 ± 0.058 mPa·s
viscosity (308.15 K, 101 kPa, x1 = 0.237): 2.243 ± 0.06 mPa·s
viscosity (308.15 K, 101 kPa, x1 = 0.277): 2.322 ± 0.062 mPa·s
viscosity (308.15 K, 101 kPa, x1 = 0.321): 2.392 ± 0.064 mPa·s
viscosity (308.15 K, 101 kPa, x1 = 0.36): 2.415 ± 0.065 mPa·s
viscosity (308.15 K, 101 kPa, x1 = 0.408): 2.415 ± 0.065 mPa·s
viscosity (308.15 K, 101 kPa, x1 = 0.472): 2.398 ± 0.064 mPa·s
viscosity (308.15 K, 101 kPa, x1 = 0.529): 2.358 ± 0.063 mPa·s
viscosity (308.15 K, 101 kPa, x1 = 0.618): 2.248 ± 0.06 mPa·s
viscosity (308.15 K, 101 kPa, x1 = 0.669): 2.142 ± 0.057 mPa·s
viscosity (308.15 K, 101 kPa, x1 = 0.816): 1.819 ± 0.049 mPa·s
viscosity (313.15 K, 101.33 kPa, x1 = 0.0222): 0.848 ± 0.0085 mPa·s
viscosity (313.15 K, 101.33 kPa, x1 = 0.0806): 1.327 ± 0.013 mPa·s
viscosity (313.15 K, 101.33 kPa, x1 = 0.17): 1.786 ± 0.018 mPa·s

CCCC(C)O (stereo unspecified) + O
viscosity (298.15 K, 101 kPa, x2 = 0.008): 3.443 ± 0.032 mPa·s
viscosity (298.15 K, 101 kPa, x2 = 0.0721): 3.234 ± 0.032 mPa·s
viscosity (298.15 K, 101 kPa, x2 = 0.0934): 3.182 ± 0.033 mPa·s
viscosity (298.15 K, 101 kPa, x2 = 0.1359): 3.129 ± 0.034 mPa·s
viscosity (298.15 K, 101 kPa, x2 = 0.1655): 3.111 ± 0.035 mPa·s
viscosity (298.15 K, 101 kPa, x2 = 0.1981): 3.104 ± 0.037 mPa·s
viscosity (298.15 K, 101 kPa, x2 = 0.2187): 3.114 ± 0.038 mPa·s
viscosity (298.15 K, 101 kPa, x2 = 0.2403): 3.119 ± 0.039 mPa·s
viscosity (298.15 K, 101 kPa, x2 = 0.255): 3.125 ± 0.04 mPa·s
viscosity (298.15 K, 101 kPa, x2 = 0.2971): 3.163 ± 0.042 mPa·s

CCCCCCCCCCCCOS(=O)(=O)[O-].[Na+] + O
viscosity (303.15 K, 101.33 kPa, x1 = 0.000252): 0.8085 ± 0.017 mPa·s
viscosity (308.15 K, 101.33 kPa, x1 = 0.000324): 0.7345 ± 0.015 mPa·s
viscosity (308.15 K, 101.33 kPa, x1 = 0.000432): 0.7465 ± 0.016 mPa·s
viscosity (313.15 K, 101.33 kPa, x1 = 7.2e-05): 0.6585 ± 0.014 mPa·s

CCN(C=O)CC + O
viscosity (298.16 K, 101 kPa, x2 = 0.1029): 1.23 ± 0.01 mPa·s
viscosity (298.16 K, 101 kPa, x2 = 0.247): 1.47 ± 0.01 mPa·s
viscosity (298.16 K, 101 kPa, x2 = 0.3904): 1.84 ± 0.02 mPa·s
viscosity (298.16 K, 101 kPa, x2 = 0.5426): 2.38 ± 0.02 mPa·s
viscosity (298.16 K, 101 kPa, x2 = 0.6681): 2.83 ± 0.02 mPa·s
viscosity (298.16 K, 101 kPa, x2 = 0.7344): 3 ± 0.02 mPa·s
viscosity (298.16 K, 101 kPa, x2 = 0.7646): 3.01 ± 0.02 mPa·s
viscosity (298.16 K, 101 kPa, x2 = 0.8236): 2.9 ± 0.02 mPa·s
viscosity (298.16 K, 101 kPa, x2 = 0.8813): 2.53 ± 0.02 mPa·s

CC[N+](CC)(CC)CC.[OH-] + O
viscosity (298.15 K, 101 kPa, x1 = 0.00313): 0.9776 ± 0.017 mPa·s
viscosity (298.15 K, 101 kPa, x1 = 0.0064): 1.114 ± 0.02 mPa·s
viscosity (298.15 K, 101 kPa, x1 = 0.01341): 1.248 ± 0.023 mPa·s
viscosity (298.15 K, 101 kPa, x1 = 0.02113): 1.659 ± 0.031 mPa·s
viscosity (298.15 K, 101 kPa, x1 = 0.02968): 2.07 ± 0.039 mPa·s
viscosity (298.15 K, 101 kPa, x1 = 0.03918): 2.869 ± 0.056 mPa·s
viscosity (298.15 K, 101 kPa, x1 = 0.04982): 3.679 ± 0.073 mPa·s
viscosity (303.15 K, 101 kPa, x1 = 0.00313): 0.8738 ± 0.016 mPa·s
viscosity (303.15 K, 101 kPa, x1 = 0.0064): 0.9902 ± 0.018 mPa·s
viscosity (303.15 K, 101 kPa, x1 = 0.01341): 1.107 ± 0.02 mPa·s
viscosity (303.15 K, 101 kPa, x1 = 0.02113): 1.453 ± 0.027 mPa·s
viscosity (303.15 K, 101 kPa, x1 = 0.02968): 1.8 ± 0.034 mPa·s
viscosity (303.15 K, 101 kPa, x1 = 0.03918): 2.455 ± 0.048 mPa·s
viscosity (303.15 K, 101 kPa, x1 = 0.04982): 3.111 ± 0.062 mPa·s
viscosity (313.15 K, 101 kPa, x1 = 0.00313): 0.7149 ± 0.013 mPa·s
viscosity (313.15 K, 101 kPa, x1 = 0.0064): 0.8019 ± 0.014 mPa·s
viscosity (313.15 K, 101 kPa, x1 = 0.01341): 0.8902 ± 0.016 mPa·s
viscosity (313.15 K, 101 kPa, x1 = 0.02113): 1.144 ± 0.021 mPa·s
viscosity (313.15 K, 101 kPa, x1 = 0.02968): 1.399 ± 0.026 mPa·s
viscosity (313.15 K, 101 kPa, x1 = 0.03918): 1.856 ± 0.036 mPa·s
viscosity (313.15 K, 101 kPa, x1 = 0.04982): 2.313 ± 0.046 mPa·s
viscosity (323.15 K, 101 kPa, x1 = 0.00313): 0.6005 ± 0.011 mPa·s
viscosity (323.15 K, 101 kPa, x1 = 0.0064): 0.6598 ± 0.012 mPa·s
viscosity (323.15 K, 101 kPa, x1 = 0.01341): 0.7359 ± 0.013 mPa·s
viscosity (323.15 K, 101 kPa, x1 = 0.02113): 0.9278 ± 0.017 mPa·s
viscosity (323.15 K, 101 kPa, x1 = 0.02968): 1.121 ± 0.021 mPa·s
viscosity (323.15 K, 101 kPa, x1 = 0.03918): 1.45 ± 0.028 mPa·s
viscosity (323.15 K, 101 kPa, x1 = 0.04982): 1.779 ± 0.035 mPa·s
